# Data as given in patent publication US20150065436A1, “INHIBITING INTERACTION BETWEEN HIF-1ALPHA AND p300/CBP WITH HYDROGEN BOND SURROGATE-BASED HELICES” (UNIVERSITY OF SOUTHERN CALIFORNIA, priority 2013, published 2015).
# Assays:
# [1] = system: 786-O renal cell carcinoma tumors
# Description: Mice (n=6) were inoculated with 786-O cells (2×10^6 cells) into the right flank and allowed to grow tumors for 21 days. […] In parallel, a control group (n=6) received injections of PBS. Tumor sizes were measured on Days 2, 3, 4, 6, 8, 11, 13, 16, 20, 25, 28, and 33. […] At a conclusion of the study, mice were injected intraperitoneally with the near-infrared dye IR-783 contrast agent and the tumors were imaged using Xenogen IVIS 200 small animal imager.
# The CrTac:NCr-Foxn1^nu mouse (Taconic, Inc.) was used for efficacy studies. […] Measurable tumors (˜100 mm^3) grew in as little as 2-3 weeks after the inoculation of 2×10^6 cells into the flank of the mice. […] Tumor sizes were measured in accordance with literature recommendations.
# [2] = system: VEGF protein; assay: ELISA of secreted VEGF protein levels; format: cell-based, human; details: HeLa cells, 1 μM to 10 μM, DFO 300 μM
# Description: The ability of HBS 1 and HBS 2 to inhibit hypoxia-induced transcription of target genes (VEGFA, SLC2A1/GLUT-1, and LOX) was evaluated employing real-time quantitative RT-PCR (qRT-PCR) assays. The data from the qRT-PCR experiments are presented in FIGS. 17A-D. HBS 1 reduced expression levels of VEGF by 50% at 10 μM and greater than 60% at 50 μM showing marked dose dependence. […] Next, it was determined whether this inhibition could be observed for other therapeutically relevant hypoxia-inducible genes. […] To rule out the possibility that the compounds are only efficacious under DFO mimicked hypoxia, the efficacies of the HBS peptides in downregulating VEGF gene expression were compared under two different hypoxia mimetic conditions: DFO and prolonged incubation in an anaerobic pouch. […] Next, the effect of HBS 1 treatment on the levels of secreted VEGF protein was assessed.
# [3] = system: HIF-1α; assay: Western blot analysis of HIF-1α levels; format: cell-based, human; details: HeLa cells, 10 μM, hypoxia mimicked with DFO 300 μM
# Description: HeLa cells were plated in a 75 cm^2 culture flask and allowed to reach 70% confluence. Cells were treated with vehicle or HBS 1 at 10 μM concentration in the cell culture media containing 10% FBS. […] Cells were incubated for 6 hours and hypoxia was induced with 300 μM. DFO. After incubation for an additional 18 hours, cells were lysed and cytoplasmic and nuclear extracts were collected using a NE-PER kit (Pierce) according to the manufacturer's protocol and blotted as described in Dubey et al., “Suppression of Tumor Growth by Designed Dimeric Epidithiodiketopiperazine Targeting Hypoxia-Inducible Transcription Factor Complex,” J. Am. Chem. Soc. 135(11):4537-49 (2013), which is hereby incorporated by reference in its entirety.
# To exclude the possibility that the observed down-regulation in the expression of hypoxia-inducible genes was due to a change in the levels of HIF-1α protein itself, a western blot analysis of HIF-1α was performed in hypoxic cells treated with HBS 1. […] As expected, the levels of induced HIF-1α protein were unaffected by treatment with HBS 1 (FIG. 16).
# [4] = at conclusion of study, IR-783 imaging
compound,measurement,setting,value
"CC(C)C[C@H](NC(=O)[C@H](C)NC(=O)[C@H](CCCNC(=N)N)NC(=O)[C@H](C)N1CC=CCCC(=O)N[C@@H](CCC(=O)O)C(=O)N[C@@H](CC(C)C)C1=O)C(=O)N[C@@H](CC(=O)O)C(=O)N[C@@H](CCC(N)=O)C(N)=O [HBS 1, XELA*RALDQ-NH2]",median tumor volume reduction compared to control group,"[1]; 13 mg/kg parenterally, 5 injections, 786-O xenograft",53%
same,median tumor volume,"[1]; 13 mg/kg, 786-O xenograft, volumes measured throughout the study",138 mm^3
same,NIR signal (IR-783) from the main tumor,[1]; [4],significantly reduced signal
same,"NIR signal (IR-783) in lymph nodes, brain or other organs (metastasis)",[1]; [4],no detectable NIR signal
same,secreted VEGF protein levels,[2],downregulates VEGF protein levels in HeLa cells in a dose-dependent manner
same,levels of induced HIF-1α protein,[3],unaffected
